Source: ChEMBL document CHEMBL3822358 (J Med Chem, 2016)
Converted amounts (≈) assume the structure as drawn. The source made the active and inactive calls. The calls are words filed in the database; no cut-off is given here.

Tests used:
[1] = biological target: Insulin-like growth factor 1 receptor (Homo sapiens, UniProt P08069)
Insulin receptor = Insulin receptor (Homo sapiens, UniProt P06213)
Description: Inhibition of human InsR using myelin basic protein as substrate and [gamma-33P]ATP measured after 1 hr

[2] = (§1) AUC (0 to infinity) in CD rat at 3 mg/kg, iv by LC-MS/MS analysis; assay type: ADME, organism-based; set-up: dose 3 mg/kg, time infinity, route intravenous; conditions: CD, in vivo
[3] = Clearance in CD rat at 3 mg/kg, iv by LC-MS/MS analysis; assay type: ADME, organism-based; conditions: in vivo
[4] = (§2) Half life in CD rat at 3 mg/kg, iv by LC-MS/MS analysis; assay type: ADME, organism-based; conditions: CD, in vivo
[5] = (§3) Volume of distribution at steady state in CD rat at 3 mg/kg, iv by LC-MS/MS analysis; assay type: ADME, organism-based; conditions: CD, in vivo, read-out: Vdss
[6] = Cmax in CD rat at 10 mg/kg, po by LC-MS/MS analysis; assay type: ADME, organism-based; set-up: dose 10 mg/kg, route oral; conditions: in vivo
[7] = AUC (0 to infinity) in CD rat at 10 mg/kg, po by LC-MS/MS analysis; assay type: ADME, organism-based; set-up: dose 10 mg/kg, route oral, time infinity; conditions: in vivo
[8] = Tmax in CD rat at 10 mg/kg, po by LC-MS/MS analysis; assay type: ADME, organism-based; conditions: in vivo
[9] = Half life in CD rat at 10 mg/kg, po by LC-MS/MS analysis; assay type: ADME, organism-based; conditions: in vivo
[10] = Oral bioavailability in CD rat at 10 mg/kg by LC-MS/MS analysis; assay type: ADME, organism-based; conditions: in vivo
[11] = Cmax in mouse at 10 mg/kg, po by LC-MS/MS analysis; assay type: ADME, organism-based; set-up: dose 10 mg/kg, route oral; conditions: in vivo
[12] = AUC (0 to 24 hrs) in mouse at 10 mg/kg, po by LC-MS/MS analysis; assay type: ADME, organism-based; set-up: time < 24 hr, dose 10 mg/kg, route oral; conditions: in vivo
[13] = Half life in mouse at 10 mg/kg, po by LC-MS/MS analysis; assay type: ADME, organism-based; conditions: in vivo
[14] = biological target: T1, ALK tyrosine kinase receptor (Homo sapiens, UniProt Q9UM73); test: Inhibition of ALK phosphorylation in mouse xenografted with human KARPAS299 cells assessed as p-ALK level at 25 mg/kg, po administered as single dose measured after 10 hrs relative to 2 hrs vehicle-treated tumor; assay type: organism-based; set-up: scale not given: the % may be the effect or the level left; conditions: KARPAS-299
Target sequence in this assay (Q9UM73 19-1620 limits assumed): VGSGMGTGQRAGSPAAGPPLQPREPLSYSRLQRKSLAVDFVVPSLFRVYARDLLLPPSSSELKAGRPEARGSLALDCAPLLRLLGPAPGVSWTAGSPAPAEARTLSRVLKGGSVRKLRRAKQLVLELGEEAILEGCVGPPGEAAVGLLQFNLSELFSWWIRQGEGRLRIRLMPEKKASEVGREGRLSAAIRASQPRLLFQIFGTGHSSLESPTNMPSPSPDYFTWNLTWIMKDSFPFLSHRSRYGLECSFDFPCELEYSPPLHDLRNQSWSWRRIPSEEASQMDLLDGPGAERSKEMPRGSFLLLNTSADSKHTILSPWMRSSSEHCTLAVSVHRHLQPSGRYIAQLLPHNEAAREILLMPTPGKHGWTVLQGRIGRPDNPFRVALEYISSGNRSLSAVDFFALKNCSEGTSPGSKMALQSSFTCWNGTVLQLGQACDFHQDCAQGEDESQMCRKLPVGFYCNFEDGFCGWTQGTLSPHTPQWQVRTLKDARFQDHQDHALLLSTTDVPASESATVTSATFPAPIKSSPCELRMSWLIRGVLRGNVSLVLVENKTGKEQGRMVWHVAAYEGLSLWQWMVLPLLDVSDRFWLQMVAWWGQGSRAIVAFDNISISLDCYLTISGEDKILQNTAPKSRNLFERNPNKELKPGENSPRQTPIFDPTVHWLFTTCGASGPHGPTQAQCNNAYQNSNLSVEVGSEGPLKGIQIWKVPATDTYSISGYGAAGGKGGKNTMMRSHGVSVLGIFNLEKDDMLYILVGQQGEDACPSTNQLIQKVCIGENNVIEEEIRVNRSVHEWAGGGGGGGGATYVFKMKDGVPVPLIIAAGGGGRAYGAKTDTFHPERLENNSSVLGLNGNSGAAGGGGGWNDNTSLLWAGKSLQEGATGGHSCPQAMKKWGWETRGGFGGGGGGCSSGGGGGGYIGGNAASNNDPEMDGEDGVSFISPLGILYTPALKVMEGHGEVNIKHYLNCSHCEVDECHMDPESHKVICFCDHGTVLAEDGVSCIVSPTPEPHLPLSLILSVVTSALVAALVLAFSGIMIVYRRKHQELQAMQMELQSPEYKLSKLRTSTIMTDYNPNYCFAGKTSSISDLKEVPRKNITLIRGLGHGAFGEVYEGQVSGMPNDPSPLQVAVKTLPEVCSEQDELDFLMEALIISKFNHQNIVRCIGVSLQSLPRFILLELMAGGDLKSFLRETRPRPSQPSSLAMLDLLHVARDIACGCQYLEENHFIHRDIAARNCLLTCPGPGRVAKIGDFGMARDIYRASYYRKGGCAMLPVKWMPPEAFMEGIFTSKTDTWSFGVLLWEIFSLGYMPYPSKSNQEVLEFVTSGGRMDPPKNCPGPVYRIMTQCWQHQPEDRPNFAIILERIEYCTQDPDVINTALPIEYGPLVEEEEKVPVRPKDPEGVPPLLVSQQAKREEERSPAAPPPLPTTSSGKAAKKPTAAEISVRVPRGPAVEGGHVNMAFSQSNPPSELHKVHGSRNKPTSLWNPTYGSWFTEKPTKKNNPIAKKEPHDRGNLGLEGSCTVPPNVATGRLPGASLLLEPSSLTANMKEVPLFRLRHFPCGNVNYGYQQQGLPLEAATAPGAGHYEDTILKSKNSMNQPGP

[15] = biological target: T1, ALK tyrosine kinase receptor; test: Inhibition of ALK phosphorylation in mouse xenografted with human KARPAS299 cells assessed as p-ALK level at 25 mg/kg, po administered as single dose measured after 16 hrs relative to 2 hrs vehicle-treated tumor; assay type: organism-based; set-up: scale not given: the % may be the effect or the level left; conditions: KARPAS-299
Target sequence in this assay (Q9UM73 19-1620 limits assumed): as above

[16] = biological target: T1, ALK tyrosine kinase receptor; test: Inhibition of ALK phosphorylation in mouse xenografted with human KARPAS299 cells assessed as p-ALK level at 25 mg/kg, po administered as single dose measured after 24 hrs relative to 2 hrs vehicle-treated tumor; assay type: organism-based; set-up: scale not given: the % may be the effect or the level left; conditions: KARPAS-299
Target sequence in this assay (Q9UM73 19-1620 limits assumed): as above

KARPAS-299 [17] = test: Antitumor activity against human KARPAS299 cells xenografted in SCID/beige mouse assessed as tumor growth inhibition administered orally once daily for 13 days relative to untreated control; assay type: functional, cell-based
KARPAS-299 [18] = test: Antitumor activity against human KARPAS299 cells expressing […] fusion protein xenografted in SCID/beige mouse assessed as tumor stasis at 50 mg/kg, po administered once daily for 13 days; assay type: functional, organism-based
Mus musculus [19] = test: Toxicity in SCID/beige mouse xenografted with human KARPAS299 cells expressing […] fusion protein at 50 mg/kg, po administered once daily for 13 days; assay type: organism-based, KARPAS-299; conditions: in vivo, 312 h
[20] = biological target: T1, ALK tyrosine kinase receptor
Description: Inhibition of human ALK using poly[Glu:Tyr] (4:1) as substrate and [gamma-33P]ATP measured after 1 hr

cells [21] = conditions: Homo sapiens, KARPAS-299, 72 h
Description: Antiproliferative activity against human ALK-positive KARPAS299 cells assessed as reduction in cell viability measured after 72 hrs by CellTiter 96 aqueous one solution cell proliferation assay

cells [22] = conditions: Homo sapiens, U-937, 72 h
Description: Antiproliferative activity against human ALK-negative U937 cells assessed as reduction in cell viability measured after 72 hrs by CellTiter 96 aqueous one solution cell proliferation assay

animal or person [23] = conditions: Homo sapiens, KARPAS-299, po, 312 h, read-out: TGI
Description: Antitumor activity against human KARPAS299 cells expressing NMP-ALK fusion protein xenografted in SCID/beige mouse assessed as tumor growth inhibition at 10 mg/kg, po administered once daily for 13 days relative to untreated control

animal or person [24] = conditions: Homo sapiens, KARPAS-299, po, 312 h, read-out: TGI; remark: listed apart in the source
Description: Antitumor activity against human KARPAS299 cells expressing NMP-ALK fusion protein xenografted in SCID/beige mouse assessed as tumor growth inhibition at 25 mg/kg, po administered once daily for 13 days relative to untreated control

animal or person [25] = conditions: Homo sapiens, KARPAS-299, po, 312 h, read-out: TGI; remark: listed apart in the source
Description: Antitumor activity against human KARPAS299 cells expressing NMP-ALK fusion protein xenografted in SCID/beige mouse assessed as tumor growth inhibition at 50 mg/kg, po administered once daily for 13 days relative to untreated control

Rattus norvegicus [26] = test: as §1; assay type: ADME, organism-based; set-up: dose 3 mg/kg, time infinity, route intravenous; conditions: in vivo
Rattus norvegicus [27] = test: as §2; assay type: ADME, organism-based; conditions: in vivo
Rattus norvegicus [28] = test: as §3; assay type: ADME, organism-based; conditions: in vivo
KARPAS-299 [29] = test: Antitumor activity against human KARPAS299 cells expressing […] fusion protein xenografted in SCID/beige mouse assessed as tumor regression at 50 mg/kg, po administered once daily for 13 days; assay type: functional, organism-based
NCI-H3122 = test: Antitumor activity against human NCI-H3122 cells expressing EML4-ALK fusion protein xenografted in SCID/beige mouse assessed as tumor regression compound administered as once-daily oral dose for 19 days; assay type: functional, cell-based
Mus musculus [30] = test: Toxicity in SCID/beige mouse xenografted with human NCI-H3122 cells assessed as body weight loss at 10 to 50 mg/kg, po administered once daily for 19 days relative to vehicle-treated control; assay type: organism-based; conditions: in vivo, 456 h
[31] = biological target: Hepatocyte growth factor receptor (Homo sapiens) (UniProt P08581); test: Inhibition of human c-Met using [KKKSPGEYVNIEFG as substrate and [gamma-33P]ATP up to 1 uM measured after 1 hr
[32] = biological target: Macrophage-stimulating protein receptor (Homo sapiens) (UniProt Q04912); test: Inhibition of human Ron using KKSRGDYMTMQIG as substrate and [gamma-33P]ATP measured up to 1 uM after 1 hr
Homo sapiens [33] = organism: Homo sapiens; test: Inhibition of human EML4/ALK F1174C/V mutant
Homo sapiens [34] = organism: Homo sapiens; test: Inhibition of human EML4/ALK I1171N mutant
Homo sapiens [35] = organism: Homo sapiens; test: Inhibition of human EML4/ALK […] mutant
[36] = Protein binding in human plasma; assay type: ADME, cell-free; conditions: read-out: PPB (converted)
[37] = Protein binding in rat plasma; assay type: ADME, cell-free; conditions: read-out: PPB (converted)
[38] = Protein binding in mouse plasma; assay type: ADME, cell-free; conditions: read-out: PPB (converted)
[39] = Aqueous solubility of the compound at physiological pH; assay type: physicochemical; conditions: buffer
[40] = Lipophilicity, logD of the compound at pH 7; assay type: physicochemical; conditions: buffer

Insulin-like growth factor 1 receptor, sequence (P08069 31-736 limits assumed): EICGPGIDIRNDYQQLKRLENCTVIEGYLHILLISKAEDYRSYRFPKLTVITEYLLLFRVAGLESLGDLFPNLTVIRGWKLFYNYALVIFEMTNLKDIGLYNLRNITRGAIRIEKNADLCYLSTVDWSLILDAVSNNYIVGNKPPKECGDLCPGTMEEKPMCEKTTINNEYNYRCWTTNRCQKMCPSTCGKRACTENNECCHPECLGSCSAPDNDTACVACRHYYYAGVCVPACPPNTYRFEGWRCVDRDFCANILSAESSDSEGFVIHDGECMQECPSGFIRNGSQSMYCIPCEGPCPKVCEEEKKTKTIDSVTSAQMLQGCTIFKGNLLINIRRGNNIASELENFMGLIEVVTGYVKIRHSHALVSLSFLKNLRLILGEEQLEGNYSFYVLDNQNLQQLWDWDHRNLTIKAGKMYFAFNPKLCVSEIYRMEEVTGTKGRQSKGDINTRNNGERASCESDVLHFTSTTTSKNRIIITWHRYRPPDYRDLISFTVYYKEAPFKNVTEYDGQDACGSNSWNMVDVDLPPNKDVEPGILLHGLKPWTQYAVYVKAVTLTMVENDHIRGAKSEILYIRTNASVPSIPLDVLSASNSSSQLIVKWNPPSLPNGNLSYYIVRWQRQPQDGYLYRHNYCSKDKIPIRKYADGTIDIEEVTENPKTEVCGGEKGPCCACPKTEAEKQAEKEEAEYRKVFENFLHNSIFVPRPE
Insulin-like growth factor 1 receptor, sequence (P08069 741-1367 limits assumed): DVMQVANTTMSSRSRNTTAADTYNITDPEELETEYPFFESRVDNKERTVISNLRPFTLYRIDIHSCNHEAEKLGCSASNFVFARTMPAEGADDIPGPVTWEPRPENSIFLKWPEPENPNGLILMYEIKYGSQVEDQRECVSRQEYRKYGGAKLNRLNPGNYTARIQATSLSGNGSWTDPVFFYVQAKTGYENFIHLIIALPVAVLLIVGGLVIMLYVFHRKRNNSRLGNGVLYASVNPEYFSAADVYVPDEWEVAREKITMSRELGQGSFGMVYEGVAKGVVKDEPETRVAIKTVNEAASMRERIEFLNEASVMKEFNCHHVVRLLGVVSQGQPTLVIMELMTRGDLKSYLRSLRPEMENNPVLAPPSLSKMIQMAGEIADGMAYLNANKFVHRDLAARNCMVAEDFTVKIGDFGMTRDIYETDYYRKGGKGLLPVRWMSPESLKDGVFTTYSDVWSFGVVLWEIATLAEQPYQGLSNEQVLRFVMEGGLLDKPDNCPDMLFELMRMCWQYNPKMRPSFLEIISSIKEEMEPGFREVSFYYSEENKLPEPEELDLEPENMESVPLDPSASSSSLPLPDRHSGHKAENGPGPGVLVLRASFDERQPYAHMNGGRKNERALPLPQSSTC
Insulin receptor, sequence (P06213 28-758 limits assumed): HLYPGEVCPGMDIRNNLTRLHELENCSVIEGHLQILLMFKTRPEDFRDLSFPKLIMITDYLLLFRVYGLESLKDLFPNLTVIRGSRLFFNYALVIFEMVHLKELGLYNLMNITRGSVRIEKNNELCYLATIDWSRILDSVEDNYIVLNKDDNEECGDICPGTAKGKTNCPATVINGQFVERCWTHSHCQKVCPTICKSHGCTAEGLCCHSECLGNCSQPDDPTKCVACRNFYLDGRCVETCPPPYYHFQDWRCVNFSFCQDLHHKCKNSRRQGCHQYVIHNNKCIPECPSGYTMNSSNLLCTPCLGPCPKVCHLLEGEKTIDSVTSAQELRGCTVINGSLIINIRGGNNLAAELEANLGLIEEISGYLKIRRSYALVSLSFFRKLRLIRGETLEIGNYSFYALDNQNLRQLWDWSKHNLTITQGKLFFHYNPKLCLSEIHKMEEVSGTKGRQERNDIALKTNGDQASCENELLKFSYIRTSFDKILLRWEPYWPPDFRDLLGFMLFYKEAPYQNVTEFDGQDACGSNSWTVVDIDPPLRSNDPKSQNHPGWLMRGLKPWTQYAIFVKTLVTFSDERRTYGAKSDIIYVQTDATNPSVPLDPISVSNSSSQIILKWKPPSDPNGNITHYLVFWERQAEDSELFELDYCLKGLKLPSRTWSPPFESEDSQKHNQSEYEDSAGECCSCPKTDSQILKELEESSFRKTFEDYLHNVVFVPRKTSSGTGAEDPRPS
Insulin receptor, sequence (P06213 763-1382 limits assumed): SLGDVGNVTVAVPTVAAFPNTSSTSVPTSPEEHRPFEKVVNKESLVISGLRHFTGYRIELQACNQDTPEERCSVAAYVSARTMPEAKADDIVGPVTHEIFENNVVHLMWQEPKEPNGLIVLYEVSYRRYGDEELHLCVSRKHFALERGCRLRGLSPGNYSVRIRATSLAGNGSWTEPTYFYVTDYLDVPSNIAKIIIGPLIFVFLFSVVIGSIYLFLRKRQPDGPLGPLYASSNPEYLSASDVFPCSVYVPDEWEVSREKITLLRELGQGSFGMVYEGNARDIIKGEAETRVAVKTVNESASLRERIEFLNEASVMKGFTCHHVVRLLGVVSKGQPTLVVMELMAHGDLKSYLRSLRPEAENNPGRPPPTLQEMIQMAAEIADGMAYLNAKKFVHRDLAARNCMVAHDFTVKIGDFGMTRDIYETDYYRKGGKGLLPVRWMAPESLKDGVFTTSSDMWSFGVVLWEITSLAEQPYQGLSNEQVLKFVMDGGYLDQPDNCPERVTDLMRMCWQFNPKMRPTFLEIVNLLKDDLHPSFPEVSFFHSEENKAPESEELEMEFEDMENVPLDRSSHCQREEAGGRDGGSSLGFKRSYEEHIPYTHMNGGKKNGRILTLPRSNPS

Row | Structure (SMILES) | IC50 [1] | IC50 (Insulin receptor) | Cmax [6] | AUC(0-inf) [7] | Tmax [8] | half-life [9] | bioavailability [10] | Cmax [11] | AUC(0-t) at 24 h [12] | half-life [13] | Activity [14] | Activity [15] | Activity [16] | TGI (KARPAS-299 [17]) | Activity (Mus musculus [19]) | IC50 (cells [21]) | IC50 (cells [22]) | inhibition in vivo at 10 mg/kg (animal or person [23]) | inhibition in vivo at 25 mg/kg (animal or person [24]) | inhibition in vivo at 50 mg/kg (animal or person [25]) | further results
1 | COc1cc(N2CCN(C)CC2)ccc1Nc1ncc(Cl)c(Nc2ccccc2P(C)(C)=O)n1 | 0.0203 µM | 0.0906 µM | 0.254 µg/mL | 4.06 µg·h/mL | 6 h | 12.5 h | 39% | 0.418 µg/mL | 5.18 µg·h/mL | 2.7 h | 2% | 14% | 94% | Dose-dependent effect | Non-toxic | 0.0283 µM | 1.59 µM | 81% | 41% | 1.4% | AUC(0-inf) [2]: 3.09 µg·h/mL; clearance [3]: 0.91 L/h/kg; half-life [4]: 6.6 h; Vd [5]: 6.12 L/kg; Activity (KARPAS-299 [18]): Active; IC50 [20]: 0.00018 µM
2 | COc1cc(N2CCC(N3CCN(C)CC3)CC2)ccc1Nc1ncc(Cl)c(Nc2ccccc2P(C)(C)=O)n1 [BRIGATINIB] | 0.0249 µM | 0.196 µM | 0.305 µg/mL | 3.95 µg·h/mL | 4 h | 3.4 h | 52% | 0.448 µg/mL | 5.77 µg·h/mL | 5.8 h | 1% | 7% | 39% | Dose-dependent effect | Non-toxic | 0.029 µM | 3.19 µM | 50% | 12% | -11% | AUC (Rattus norvegicus [26]): 2.268 µg·h/mL; t1/2 (Rattus norvegicus [27]): 4.8 h; Vdss (Rattus norvegicus [28]): 7.8 L/kg; Activity (KARPAS-299 [29]): Active; Activity (NCI-H3122): Dose-dependent effect; Activity (Mus musculus [30]): Non-toxic; inhibition [31]: inactive; inhibition [32]: inactive; inhibition (Homo sapiens [33]): Active; inhibition (Homo sapiens [34]): Active; inhibition (Homo sapiens [35]): Active; fraction unbound [36]: 0.34; fraction unbound [37]: 0.27; fraction unbound [38]: 0.36; solubility [39]: 0.337 mg/mL (≈ 577 µM); logD [40]: 3.02; GI50 (cells [21]): 0.01 µM
